Results reported in ChEMBL document CHEMBL5465560, “Selectivity Literature for EUbOPEN Chemogenomic Library” (2024).

Assays:
[1] = target: Tyrosine-protein kinase Fgr (Homo sapiens) (UniProt P09769); test: Selectivity interaction (KinomeScan (DiscoverX)) EUB0000229b FGR; settings: at 10 µM
[2] = target: T1, Muscle, skeletal receptor tyrosine-protein kinase (Homo sapiens) (UniProt O15146); settings: at 10 µM
T1 sequence (whole entry): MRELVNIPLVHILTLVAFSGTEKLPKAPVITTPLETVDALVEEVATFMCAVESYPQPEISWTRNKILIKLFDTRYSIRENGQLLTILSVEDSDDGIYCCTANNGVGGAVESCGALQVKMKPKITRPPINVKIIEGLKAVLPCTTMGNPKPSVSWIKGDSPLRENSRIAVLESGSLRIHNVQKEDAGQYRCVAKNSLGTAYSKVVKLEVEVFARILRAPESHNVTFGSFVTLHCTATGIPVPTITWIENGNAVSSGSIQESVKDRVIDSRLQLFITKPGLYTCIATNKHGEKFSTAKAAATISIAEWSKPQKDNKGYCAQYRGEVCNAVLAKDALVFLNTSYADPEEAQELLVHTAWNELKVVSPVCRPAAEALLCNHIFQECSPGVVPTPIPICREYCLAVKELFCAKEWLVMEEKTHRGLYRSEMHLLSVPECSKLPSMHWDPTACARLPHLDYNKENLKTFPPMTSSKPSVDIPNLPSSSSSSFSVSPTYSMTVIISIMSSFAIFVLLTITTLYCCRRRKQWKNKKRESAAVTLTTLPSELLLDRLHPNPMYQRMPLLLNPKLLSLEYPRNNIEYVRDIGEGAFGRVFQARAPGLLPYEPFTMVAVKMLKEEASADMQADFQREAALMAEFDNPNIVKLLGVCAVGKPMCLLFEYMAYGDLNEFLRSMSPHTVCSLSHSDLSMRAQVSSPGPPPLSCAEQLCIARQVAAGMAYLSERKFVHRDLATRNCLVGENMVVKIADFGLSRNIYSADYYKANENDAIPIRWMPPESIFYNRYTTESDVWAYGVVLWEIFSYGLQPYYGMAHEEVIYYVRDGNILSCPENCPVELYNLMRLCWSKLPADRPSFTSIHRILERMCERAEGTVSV

[3] = target: Wee1-like protein kinase (Homo sapiens) (UniProt P30291); settings: at 10 µM
[4] = target: T2, Cyclin-G-associated kinase (Homo sapiens) (UniProt O14976); test: Selectivity interaction (Kinase panel (DSF assay)) EUB0001559a GAK
T2 sequence (whole entry): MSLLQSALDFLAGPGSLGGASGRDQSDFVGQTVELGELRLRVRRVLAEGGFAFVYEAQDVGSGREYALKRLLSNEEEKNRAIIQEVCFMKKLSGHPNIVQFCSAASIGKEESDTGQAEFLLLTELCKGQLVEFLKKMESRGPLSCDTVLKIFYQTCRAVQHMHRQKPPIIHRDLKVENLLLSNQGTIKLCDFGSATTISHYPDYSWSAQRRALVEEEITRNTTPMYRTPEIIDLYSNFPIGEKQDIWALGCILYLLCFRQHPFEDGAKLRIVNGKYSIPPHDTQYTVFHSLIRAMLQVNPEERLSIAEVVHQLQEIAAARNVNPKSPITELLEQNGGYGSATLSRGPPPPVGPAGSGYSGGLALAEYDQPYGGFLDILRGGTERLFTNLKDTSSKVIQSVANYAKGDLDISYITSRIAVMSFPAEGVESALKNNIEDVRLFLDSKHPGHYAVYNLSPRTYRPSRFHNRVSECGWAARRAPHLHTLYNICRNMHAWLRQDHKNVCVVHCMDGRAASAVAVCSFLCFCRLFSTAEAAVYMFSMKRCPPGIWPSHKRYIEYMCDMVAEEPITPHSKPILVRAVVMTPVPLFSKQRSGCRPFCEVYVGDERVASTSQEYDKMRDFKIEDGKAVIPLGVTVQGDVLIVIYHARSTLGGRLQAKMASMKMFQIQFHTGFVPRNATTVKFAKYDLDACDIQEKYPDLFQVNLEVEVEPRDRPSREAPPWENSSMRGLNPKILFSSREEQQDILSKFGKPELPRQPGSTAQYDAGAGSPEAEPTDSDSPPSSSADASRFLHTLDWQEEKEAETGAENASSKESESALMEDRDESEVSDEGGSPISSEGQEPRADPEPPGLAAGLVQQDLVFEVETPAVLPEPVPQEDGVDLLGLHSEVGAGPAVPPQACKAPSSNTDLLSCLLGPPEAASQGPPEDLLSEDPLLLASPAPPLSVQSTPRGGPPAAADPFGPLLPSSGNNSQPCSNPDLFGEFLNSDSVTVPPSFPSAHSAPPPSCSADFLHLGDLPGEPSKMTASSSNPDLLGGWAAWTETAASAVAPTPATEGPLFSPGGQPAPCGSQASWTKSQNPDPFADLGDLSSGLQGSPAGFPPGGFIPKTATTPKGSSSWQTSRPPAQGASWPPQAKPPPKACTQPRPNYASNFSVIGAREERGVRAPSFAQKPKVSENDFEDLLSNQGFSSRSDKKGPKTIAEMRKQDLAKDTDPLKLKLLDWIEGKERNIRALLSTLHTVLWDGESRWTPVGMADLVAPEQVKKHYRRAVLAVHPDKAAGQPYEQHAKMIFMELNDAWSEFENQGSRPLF

[5] = target: Cyclin-dependent kinase 18 (Homo sapiens) (UniProt Q07002); test: Selectivity interaction (ActivX KiNativ screen (kinase selectivity in THP-1 cell lysates)) EUB0000639a CDK18; assay type: subcellular; settings: lysate, at 0.01 µM
[6] = target: Ribosomal protein S6 kinase beta-1 (Homo sapiens, UniProt P23443); test: Selectivity interaction (ActivX KiNativ screen (kinase selectivity in THP-1 cell lysates)) EUB0000639a RPS6KB1; assay type: subcellular; settings: lysate
Chain of Ribosomal protein S6 kinase beta-1 (P23443 whole entry, looked up): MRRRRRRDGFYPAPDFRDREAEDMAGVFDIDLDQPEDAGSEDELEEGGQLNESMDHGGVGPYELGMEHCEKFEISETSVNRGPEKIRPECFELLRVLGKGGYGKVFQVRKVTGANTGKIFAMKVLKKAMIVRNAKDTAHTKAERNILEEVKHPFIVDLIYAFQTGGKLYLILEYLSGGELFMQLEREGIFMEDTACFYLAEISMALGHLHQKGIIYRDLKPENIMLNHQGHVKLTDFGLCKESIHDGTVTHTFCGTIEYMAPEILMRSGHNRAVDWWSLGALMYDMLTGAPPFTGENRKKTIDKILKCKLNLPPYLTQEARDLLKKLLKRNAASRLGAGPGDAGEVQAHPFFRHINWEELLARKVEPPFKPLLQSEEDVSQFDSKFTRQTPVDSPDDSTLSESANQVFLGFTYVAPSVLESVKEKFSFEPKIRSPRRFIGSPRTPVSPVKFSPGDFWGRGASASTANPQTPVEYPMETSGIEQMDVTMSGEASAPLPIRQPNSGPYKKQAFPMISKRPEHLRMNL

Chain of Wee1-like protein kinase (Homo sapiens) (P30291 whole entry, looked up): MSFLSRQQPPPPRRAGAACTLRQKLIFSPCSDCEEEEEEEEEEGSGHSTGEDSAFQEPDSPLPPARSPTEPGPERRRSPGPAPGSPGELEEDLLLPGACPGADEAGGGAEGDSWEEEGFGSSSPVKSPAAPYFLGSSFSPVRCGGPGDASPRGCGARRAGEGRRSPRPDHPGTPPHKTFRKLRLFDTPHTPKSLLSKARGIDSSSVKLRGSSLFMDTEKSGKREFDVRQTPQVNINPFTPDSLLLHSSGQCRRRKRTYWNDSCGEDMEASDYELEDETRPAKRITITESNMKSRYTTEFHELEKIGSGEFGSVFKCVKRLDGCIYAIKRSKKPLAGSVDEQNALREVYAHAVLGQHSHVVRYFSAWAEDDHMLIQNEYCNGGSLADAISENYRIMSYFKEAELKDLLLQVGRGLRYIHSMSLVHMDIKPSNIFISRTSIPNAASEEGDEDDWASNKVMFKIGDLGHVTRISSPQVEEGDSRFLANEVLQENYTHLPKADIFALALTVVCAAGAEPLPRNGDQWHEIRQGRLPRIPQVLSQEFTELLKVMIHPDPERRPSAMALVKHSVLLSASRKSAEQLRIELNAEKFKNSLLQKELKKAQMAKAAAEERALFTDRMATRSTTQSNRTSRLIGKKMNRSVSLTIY
Chain of Cyclin-dependent kinase 18 (Homo sapiens) (Q07002 whole entry): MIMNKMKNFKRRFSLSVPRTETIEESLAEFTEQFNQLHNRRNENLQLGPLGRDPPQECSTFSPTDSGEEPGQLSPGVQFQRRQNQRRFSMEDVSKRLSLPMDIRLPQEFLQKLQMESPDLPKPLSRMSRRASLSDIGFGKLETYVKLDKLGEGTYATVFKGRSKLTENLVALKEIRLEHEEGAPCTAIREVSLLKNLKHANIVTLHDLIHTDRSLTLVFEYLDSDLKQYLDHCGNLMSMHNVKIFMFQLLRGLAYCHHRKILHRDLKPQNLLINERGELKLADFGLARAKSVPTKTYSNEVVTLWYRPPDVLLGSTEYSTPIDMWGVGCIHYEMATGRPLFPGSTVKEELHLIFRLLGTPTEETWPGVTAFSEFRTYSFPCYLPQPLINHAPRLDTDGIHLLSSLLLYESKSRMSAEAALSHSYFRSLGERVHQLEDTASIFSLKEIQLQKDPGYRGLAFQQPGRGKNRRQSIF
Chain of Tyrosine-protein kinase Fgr (Homo sapiens) (P09769 2-529 limits assumed): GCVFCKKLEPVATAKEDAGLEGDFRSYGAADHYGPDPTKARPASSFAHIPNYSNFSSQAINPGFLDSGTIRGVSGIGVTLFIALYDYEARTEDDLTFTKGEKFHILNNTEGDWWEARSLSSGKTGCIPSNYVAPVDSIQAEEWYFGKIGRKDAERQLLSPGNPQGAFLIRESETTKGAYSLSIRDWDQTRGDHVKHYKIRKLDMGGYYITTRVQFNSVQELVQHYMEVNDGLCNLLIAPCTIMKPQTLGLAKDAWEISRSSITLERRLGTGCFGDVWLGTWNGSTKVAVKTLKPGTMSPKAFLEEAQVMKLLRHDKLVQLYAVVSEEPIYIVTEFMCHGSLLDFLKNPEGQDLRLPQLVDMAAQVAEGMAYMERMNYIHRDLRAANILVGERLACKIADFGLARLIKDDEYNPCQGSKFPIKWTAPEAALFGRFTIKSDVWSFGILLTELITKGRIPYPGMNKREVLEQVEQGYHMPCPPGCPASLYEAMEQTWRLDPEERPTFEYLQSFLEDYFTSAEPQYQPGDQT

Q: For `COc1cc(N(C)c2ccnc3ccc(C(F)(F)F)cc23)cc(OC)c1OC`, which % binding [1] is on record?
A: 97%

Q: Which results are given for `CCN(CC)CCCCNc1ncc2cc(-c3cc(OC)cc(OC)c3)c(NC(=O)NC(C)(C)C)nc2n1`?
A: % of control [2]: 100%; % of control [3]: 100%

Q: Which dTM [4] does the source give for `CN(C(=O)c1cnn2cccnc12)c1cc2c(cc1N1CCOCC1)C(=O)N(C[C@@H](F)C(C)(C)O)C2` here?
A: 0.1 K

Q: `CC[C@@H]1[C@H](F)C(=O)N[C@@H]1COc1nccc2cc(C(N)=O)c(OC)cc12` [ZIMLOVISERTIB] was tested. Which % of inhibition [5] did it give?
A: 16.3%

Q: And the % of inhibition ([6]; at 0.01 µM)?
A: 17.1%

Q: And the % of inhibition ([6]; at 0.04 µM)?
A: -0.8%

Q: And the % of inhibition ([6]; at 0.2 µM)?
A: -21.6%

Q: And the % of inhibition ([6]; at 1 µM)?
A: -2.2%

Q: And the % of inhibition ([6]; at 5 µM)?
A: -3%
